Laboratory results published in patent US5571836A, “Viral attachment inhibitors” (priority 1995, dated 1996).
Counter-ions that a name gives are not always drawn.

Experiments:
[1] = system: influenza virus USSR/90/77; test: Fetuin binding inhibition assay, influenza virus USSR/90/77; conditions: for A^i (absorbance): 492 nm
[2] = system: influenza virus Chile/1/83; test: Fetuin binding inhibition assay, influenza virus Chile/1/83; conditions: for A^i (absorbance): 492 nm
[3] = system: influenza virus Taiwan/1/86; test: Fetuin binding inhibition assay, influenza virus Taiwan/1/86; conditions: for A^i (absorbance): 492 nm
influenza virus X-31 = test: Fetuin binding inhibition assay, influenza virus X-31; conditions: for A^i (absorbance): 492 nm
[4] = system: influenza virus England/321/77; test: Fetuin binding inhibition assay, influenza virus England/321/77; conditions: for A^i (absorbance): 492 nm
[5] = system: influenza virus USSR/2/85; test: Fetuin binding inhibition assay, influenza virus USSR/2/85; conditions: for A^i (absorbance): 492 nm
[6] = system: influenza virus USSR/3/85; test: Fetuin binding inhibition assay, influenza virus USSR/3/85; conditions: for A^i (absorbance): 492 nm
[7] = system: influenza virus B/Hong Kong/8/73; test: Fetuin binding inhibition assay, influenza virus B/Hong Kong/8/73; conditions: for A^i (absorbance): 492 nm
[8] = system: influenza virus B/Singapore/222/79; test: Fetuin binding inhibition assay, influenza virus B/Singapore/222/79; conditions: for A^i (absorbance): 492 nm
[9] = system: influenza virus B/USSR/100/83; test: Fetuin binding inhibition assay, influenza virus B/USSR/100/83; conditions: for A^i (absorbance): 492 nm
[10] = system: influenza virus Port Chalmers/1/73; test: Fetuin binding inhibition assay, influenza virus Port Chalmers/1/73; conditions: for A^i (absorbance): 492 nm
[11] = system: influenza virus Victoria/3/75; test: Fetuin binding inhibition assay, influenza virus Victoria/3/75; conditions: for A^i (absorbance): 492 nm
[12] = system: influenza virus Texas/1/77; test: Fetuin binding inhibition assay, influenza virus Texas/1/77; conditions: for A^i (absorbance): 492 nm
[13] = system: influenza virus Philippines/2/82; test: Fetuin binding inhibition assay, influenza virus Philippines/2/82; conditions: for A^i (absorbance): 492 nm
[14] = molecular target: Vibrio cholerae neuraminidase (Vibrio cholerae, UniProt P0C6E9); test: Neuraminidase cleavage (resistance), TLC analysis; type: biochemical; conditions: 37° C., 450 U/ml, pH 5.6; compared with compound (IV)
Sequence of Vibrio cholerae neuraminidase (P0C6E9 25-781): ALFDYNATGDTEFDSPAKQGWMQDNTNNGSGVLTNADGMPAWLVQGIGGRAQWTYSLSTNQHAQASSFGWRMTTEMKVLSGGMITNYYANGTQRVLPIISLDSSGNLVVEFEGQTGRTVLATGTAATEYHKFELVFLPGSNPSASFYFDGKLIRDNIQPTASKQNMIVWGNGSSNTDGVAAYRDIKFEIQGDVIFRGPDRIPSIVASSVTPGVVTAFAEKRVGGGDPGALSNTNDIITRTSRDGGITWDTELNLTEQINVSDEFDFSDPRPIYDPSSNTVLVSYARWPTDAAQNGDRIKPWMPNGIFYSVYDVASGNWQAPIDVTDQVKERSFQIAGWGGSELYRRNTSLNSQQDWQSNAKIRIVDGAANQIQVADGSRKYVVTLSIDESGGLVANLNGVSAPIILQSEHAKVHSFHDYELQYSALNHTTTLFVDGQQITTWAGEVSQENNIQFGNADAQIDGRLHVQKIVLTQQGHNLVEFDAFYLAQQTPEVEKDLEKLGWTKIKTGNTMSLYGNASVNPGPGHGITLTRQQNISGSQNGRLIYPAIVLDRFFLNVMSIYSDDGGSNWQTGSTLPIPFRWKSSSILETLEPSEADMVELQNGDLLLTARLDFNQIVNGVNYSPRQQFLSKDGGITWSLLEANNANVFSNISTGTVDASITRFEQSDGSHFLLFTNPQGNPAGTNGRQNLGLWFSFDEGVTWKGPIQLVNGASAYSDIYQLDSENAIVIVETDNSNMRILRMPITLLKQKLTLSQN
Procedure: (§1) Compound (IV) was incubated at 37° C. with Vibrio cholerae neuraminidase (450 U/ml) in 0.1M acetate buffer, pH 5.6, containing 0.9% NaCi and 0.1% CaCl2. Neuraminidase cleavage was determined on aliquots taken at intervals by TLC analysis (Merck silica gel plates in propanol/ethanol/25% aqueous ammonia, 2:2:1). Spots were developed by charring the plates with 3% H3 PO4 at 150° C. and quantitated densitometrically. The results are depicted in The FIGURE (v).

[15] = type: physicochemical; conditions: control solutions without enzyme
Procedure: as §1

[16] = system: influenza virus hemagglutinin; conditions: prior art; cited from earlier work
neuraminidase = conditions: prior art; cited from earlier work
[17] = Stability of compound (observation); type: physicochemical; conditions: must be used immediately in coupling with polymer

With CC(=O)NC1C(O)CC(OCc2ccccc2)(C(=O)O)OC1C(O)C(O)CO [IX, benzyl 5-acetamido-3,5-dideoxy-α-D-glycero-D-galacto-nonulopyranosidonic acid (sodium salt), reference compound] the “-lgKd(i)” value ([1]; 1.28 mM sialoside) was 2.8, the “A^i (absorbance)” value ([1]; 1.28 mM sialoside) was 0.6 and the “-lgKd(i)” value ([1]; .16 mM sialoside) was 3.1. The “A^i (absorbance)” value ([1]; .16 mM sialoside) was 0.8, the “-lgKd(i)” value ([1]; .32 mM sialoside) was 3.1 and the “A^i (absorbance)” value ([1]; .32 mM sialoside) was 0.7. For the same molecule, the “-lgKd ± SD” value ([1]; mean over concentrations) was 3.0 ± 0.17, the “-lgKd(i)” value ([2]; 1.28 mM sialoside) was 3.4 and the “A^i (absorbance)” value ([2]; 1.28 mM sialoside) was 0.42. For the same molecule, the “-lgKd(i)” value ([2]; .16 mM sialoside) was 3.2, the “A^i (absorbance)” value ([2]; .16 mM sialoside) was 0.9 and the “-lgKd(i)” value ([2]; .32 mM sialoside) was 3.4. The “A^i (absorbance)” value ([2]; .32 mM sialoside) was 0.72, the “-lgKd(i)” value ([2]; .64 mM sialoside) was 3.3 and the “A^i (absorbance)” value ([2]; .64 mM sialoside) was 0.62. For the same molecule, the “-lgKd ± SD” value ([2]; mean over concentrations) was 3.3 ± 0.1, the “-lgKd(i)” value ([3]; 1.28 mM sialoside) was 3.0 and the “A^i (absorbance)” value ([3]; 1.28 mM sialoside) was 0.22. The “-lgKd(i)” value ([3]; .32 mM sialoside) was 2.8, the “A^i (absorbance)” value ([3]; .32 mM sialoside) was 0.36 and the “-lgKd(i)” value ([3]; .64 mM sialoside) was 2.9. For the same molecule, the “A^i (absorbance)” value ([3]; .64 mM sialoside) was 0.31, the “-lgKd ± SD” value ([3]; mean over concentrations) was 2.9 ± 0.1 and the “-lgKd(i)” value (influenza virus X-31; 1.28 mM sialoside) was 2.8. For the same molecule, the “A^i (absorbance)” value (influenza virus X-31; 1.28 mM sialoside) was 0.66, the “-lgKd(i)” value (influenza virus X-31; .32 mM sialoside) was 3.1 and the “A^i (absorbance)” value (influenza virus X-31; .32 mM sialoside) was 0.86. For the same molecule, the “-lgKd(i)” value (influenza virus X-31; .64 mM sialoside) was 2.7, the “A^i (absorbance)” value (influenza virus X-31; .64 mM sialoside) was 0.84 and the “-lgKd ± SD” value (influenza virus X-31; mean over concentrations) was 2.9 ± 0.21. For the same molecule, the “-lgKd(i)” value ([4]; .08 mM sialoside) was 4.4, the “A^i (absorbance)” value ([4]; .08 mM sialoside) was 0.49 and the “-lgKd(i)” value ([4]; .16 mM sialoside) was 4.6. For the same molecule, the “A^i (absorbance)” value ([4]; .16 mM sialoside) was 0.21, the “-lgKd(i)” value ([4]; .32 mM sialoside) was 4.5 and the “A^i (absorbance)” value ([4]; .32 mM sialoside) was 0.13. For the same molecule, the “-lgKd(i)” value ([4]; .64 mM sialoside) was 4.8, the “A^i (absorbance)” value ([4]; .64 mM sialoside) was 0.04 and the “-lgKd ± SD” value ([4]; mean over concentrations) was 4.5 ± 0.1. The “-lgKd(i)” value ([5]; 1.28 mM sialoside) was 3.5, the “A^i (absorbance)” value ([5]; 1.28 mM sialoside) was 0.12 and the “-lgKd(i)” value ([5]; .32 mM sialoside) was 3.1. For the same molecule, the “A^i (absorbance)” value ([5]; .32 mM sialoside) was 0.32, the “-lgKd(i)” value ([5]; .64 mM sialoside) was 3.3 and the “A^i (absorbance)” value ([5]; .64 mM sialoside) was 0.25. For the same molecule, the “-lgKd ± SD” value ([5]; mean over concentrations) was 3.3 ± 0.2, the “-lgKd(i)” value ([6]; 1.28 mM sialoside) was 4.5 and the “A^i (absorbance)” value ([6]; 1.28 mM sialoside) was 0.06. For the same molecule, the “-lgKd(i)” value ([6]; .08 mM sialoside) was 4.5, the “A^i (absorbance)” value ([6]; .08 mM sialoside) was 0.5 and the “-lgKd(i)” value ([6]; .16 mM sialoside) was 4.6. For the same molecule, the “A^i (absorbance)” value ([6]; .16 mM sialoside) was 0.28, the “-lgKd(i)” value ([6]; .32 mM sialoside) was 4.6 and the “A^i (absorbance)” value ([6]; .32 mM sialoside) was 0.16. For the same molecule, the “-lgKd(i)” value ([6]; .64 mM sialoside) was 4.6, the “A^i (absorbance)” value ([6]; .64 mM sialoside) was 0.08 and the “-lgKd ± SD” value ([6]; mean over concentrations) was 4.6 ± 0.05. For the same molecule, the “-lgKd(i)” value ([7]; 1.28 mM sialoside) was 3.0, the “A^i (absorbance)” value ([7]; 1.28 mM sialoside) was 0.32 and the “-lgKd(i)” value ([7]; .32 mM sialoside) was 2.7. For the same molecule, the “A^i (absorbance)” value ([7]; .32 mM sialoside) was 0.55, the “-lgKd(i)” value ([7]; .64 mM sialoside) was 2.8 and the “A^i (absorbance)” value ([7]; .64 mM sialoside) was 0.48. For the same molecule, the “-lgKd ± SD” value ([7]; mean over concentrations) was 2.8 ± 0.15, the “-lgKd(i)” value ([8]; 1.28 mM sialoside) was 3.4 and the “A^i (absorbance)” value ([8]; 1.28 mM sialoside) was 0.39. For the same molecule, the “-lgKd(i)” value ([8]; .16 mM sialoside) was 3.4, the “A^i (absorbance)” value ([8]; .16 mM sialoside) was 0.85 and the “-lgKd(i)” value ([8]; .32 mM sialoside) was 3.3. The “A^i (absorbance)” value ([8]; .32 mM sialoside) was 0.76, the “-lgKd(i)” value ([8]; .64 mM sialoside) was 3.2 and the “A^i (absorbance)” value ([8]; .64 mM sialoside) was 0.65. The “-lgKd ± SD” value ([8]; mean over concentrations) was 3.3 ± 0.1, the “-lgKd(i)” value ([9]; 1.28 mM sialoside) was 3.1 and the “A^i (absorbance)” value ([9]; 1.28 mM sialoside) was 0.9. The “-lgKd(i)” value ([9]; .16 mM sialoside) was 3.6, the “A^i (absorbance)” value ([9]; .16 mM sialoside) was 1.2 and the “-lgKd(i)” value ([9]; .32 mM sialoside) was 3.6. The “A^i (absorbance)” value ([9]; .32 mM sialoside) was 1.0, the “-lgKd ± SD” value ([9]; mean over concentrations) was 3.4 ± 0.3 and the “-lgKd(i)” value ([10]; 1.60 mM sialoside) was 3.4. The “A^i (absorbance)” value ([10]; 1.60 mM sialoside) was 0.20, the “-lgKd(i)” value ([10]; .05 mM sialoside) was 3.7 and the “A^i (absorbance)” value ([10]; .05 mM sialoside) was 0.51. The “-lgKd(i)” value ([10]; .10 mM sialoside) was 4.1, the “A^i (absorbance)” value ([10]; .10 mM sialoside) was 0.36 and the “-lgKd(i)” value ([10]; .20 mM sialoside) was 3.8. The “A^i (absorbance)” value ([10]; .20 mM sialoside) was 0.36, the “-lgKd(i)” value ([10]; .40 mM sialoside) was 3.6 and the “A^i (absorbance)” value ([10]; .40 mM sialoside) was 0.33. For the same molecule, the “-lgKd(i)” value ([10]; .80 mM sialoside) was 3.5, the “A^i (absorbance)” value ([10]; .80 mM sialoside) was 0.28 and the “-lgKd ± SD” value ([10]; mean over concentrations) was 3.7 ± 0.3. For the same molecule, the “-lgKd(i)” value ([11]; 1.60 mM sialoside) was 4.2, the “A^i (absorbance)” value ([11]; 1.60 mM sialoside) was 0.09 and the “-lgKd(i)” value ([11]; .05 mM sialoside) was 4.0. The “A^i (absorbance)” value ([11]; .05 mM sialoside) was 0.64, the “-lgKd(i)” value ([11]; .10 mM sialoside) was 4.0 and the “A^i (absorbance)” value ([11]; .10 mM sialoside) was 0.58. For the same molecule, the “-lgKd(i)” value ([11]; .20 mM sialoside) was 4.05, the “A^i (absorbance)” value ([11]; .20 mM sialoside) was 0.45 and the “-lgKd(i)” value ([11]; .40 mM sialoside) was 4.1. For the same molecule, the “A^i (absorbance)” value ([11]; .40 mM sialoside) was 0.31, the “-lgKd(i)” value ([11]; .80 mM sialoside) was 4.2 and the “A^i (absorbance)” value ([11]; .80 mM sialoside) was 0.16. The “-lgKd ± SD” value ([11]; mean over concentrations) was 4.1 ± 0.08, the “-lgKd(i)” value ([12]; 1.60 mM sialoside) was 5.1 and the “A^i (absorbance)” value ([12]; 1.60 mM sialoside) was 0.04. The “-lgKd(i)” value ([12]; .05 mM sialoside) was 4.8, the “A^i (absorbance)” value ([12]; .05 mM sialoside) was 0.77 and the “-lgKd(i)” value ([12]; .10 mM sialoside) was 4.9. For the same molecule, the “A^i (absorbance)” value ([12]; .10 mM sialoside) was 0.55, the “-lgKd(i)” value ([12]; .20 mM sialoside) was 5.0 and the “A^i (absorbance)” value ([12]; .20 mM sialoside) was 0.30. For the same molecule, the “-lgKd(i)” value ([12]; .40 mM sialoside) was 4.9, the “A^i (absorbance)” value ([12]; .40 mM sialoside) was 0.20 and the “-lgKd(i)” value ([12]; .80 mM sialoside) was 5.0. The “A^i (absorbance)” value ([12]; .80 mM sialoside) was 0.09, the “-lgKd ± SD” value ([12]; mean over concentrations) was 5.0 ± 0.1 and the “-lgKd(i)” value ([13]; .05 mM sialoside) was 5.2. The “A^i (absorbance)” value ([13]; .05 mM sialoside) was 0.35, the “-lgKd(i)” value ([13]; .10 mM sialoside) was 5.3 and the “A^i (absorbance)” value ([13]; .10 mM sialoside) was 0.18. The “-lgKd(i)” value ([13]; .20 mM sialoside) was 5.4, the “A^i (absorbance)” value ([13]; .20 mM sialoside) was 0.08 and the “-lgKd(i)” value ([13]; .40 mM sialoside) was 5.4. For the same molecule, the “A^i (absorbance)” value ([13]; .40 mM sialoside) was 0.05, the “-lgKd(i)” value ([13]; .80 mM sialoside) was 5.3 and the “A^i (absorbance)” value ([13]; .80 mM sialoside) was 0.03. The “-lgKd ± SD” value ([13]; mean over concentrations) was 5.3 ± 0.08, the Neuraminidase cleavage [14] was “cleaved much more rapidly” and the “Stability in the absence of enzyme” value [15] was “at least 23 hours”. For the same molecule, the Inhibition of attachment [16] was “shows greater inhibition of attachment than 5-acetyl neuraminic acid itself” and the “Susceptibility to neuraminidase cleavage” value (neuraminidase) was “not immune to this cleavage”.
In the case of CC(=S)NC1C(O)CC(OCc2ccc(NC(=S)CN)cc2)(C(=O)O)OC1C(O)C(O)CO [VIII, p-thioglycylamidobenzyl 3,5-dideoxy-5-thioacetamido-α-D-glycero-D-galacto-nonulopyranosidonic acid], the Stability [17] is reported as “unstable”.
